Results from patent US10105326B2, “Pharmaceutical solution comprising dopamine for use in treating parkinson's disease” (CENTRE HOSPITALIER REGIONAL ET UNIVERSITAIRE DE LILLE (CHRU), priority 2014, dated 2018).

What was measured:
Type in all cases: in vivo
[1] = tested on: TH-ir neurons in SNpc; assay: TH-ir neurons counting in SNpc of MPTP mice
Procedure: (§1) Five-month-old male C57B1/6J mice (Elevage Janvier, Le Genest St Isle, France) weighing 28-30 g were used. The mice received four intraperitoneal injections (with 2 h intervals) of saline solution containing 0 (“Saline mice”) or 20 mg/kg of MPTP (“MPTP mice”) (Sigma Aldrich, St Louis, Mo. USA). Saline or MPTP were administrated at day 0 (D0), the central continuous dopamine infusion or peripheral L-dopa treatment were delivered from 7th to the 14th day (D7 to D14), and then spontaneous locomotor measurement and sacrifice were performed at D14.
The brains were removed and, after a post-fixation process, were cryoprotected and frozen. […]
The number of TH-ir neurons (“Tyrosine Hydroxylase-Immunoreactive») in the SNpc was assessed by counting TH-ir neurons of the left and right hemisphere in every 4th section of the SNpc of all experimental groups. […] For the unbiased quantification, a line was drawn around the SNpc of each section. […] Cells were counted with a 40× using a Nikon Eclipse E600 microscope (Tokyo, Japan). […] As no difference between left and right SNps was found, TH-ir counted neurons of both sides were pooled and for each animal, a sum of neurons counted in each section was calculated. […]

[2] = tested on: striatum of MPTP mice; assay: Neurotransmitter content in striatum of MPTP mice (HPLC)
Procedure: as §1

[3] = tested on: MPTP mice; assay: Spontaneous motor activity (actimetry) in MPTP mice; settings: for spontaneous locomotor activity: 7 days
Procedure: as §1
After 7 days of treatment (i.p. L-dopa or i.c.v dopamine), spontaneous motor activity was recorded in an actimeter (Panlab, Barcelona, Spain) during 10 minutes. The apparatus was a 45×45×35 cm transparent Plexiglas enclosure equipped with two frames of infrared beams. This apparatus allowed horizontal motor activity (distance traveled, speed, movement type) and rearing behavior to be measured based on infrared beams obstructions. Chosen parameters were collected by Actitrack software (Panlab, Barcelona, Spain).

[4] = tested on: TH-ir terminals in dorsal striatum; assay: TH-ir optical density in dorsal striatum of MPTP mice; settings: MPTP administration
[5] = peripheral L-dopa 50 and 100 mg/day

`N[C@@H](Cc1ccc(O)c(O)c1)C(=O)O` [L-dopa, L-3,4-dihydroxyphenylalanine] was tested, and the “effect on TH-ir neurons in SNpc” value ([1]; L-dopa treatment, 7 days) was “no significant effect”, the “dopaminergic neurotransmission in striatum” value ([2]; peripheral L-dopa 25 mg/day) was “no effect on dopaminergic neurotransmission” and the “serotonin and noradrenalin in both striatum” value ([2]; peripheral L-dopa 25 mg/day) was “increase in serotonin and noradrenalin in both striatum”. The “dopamine and metabolites in both striatum” value [2, 5] was “significant increase in dopamine and metabolites in both striatum”, the “serotonin and noradrenalin content” value [2, 5] was “no supplemental effect on serotonin and noradrenalin content” and the abnormal behaviors ([3]; high doses of L-Dopa) was “abnormal behaviors such as dyskinesia”. For the same compound, the spontaneous locomotor activity ([3]; peripheral L-dopa 50 mg/kg/day) was “restored” and the spontaneous locomotor activity ([3]; peripheral L-dopa 25 and 100 mg/day) was “no effect”.

For `CN1CC=C(c2ccccc2)CC1` [MPTP, 1-methyl-4-phenyl-1,2,3,6-tetrahydropyridine], the “loss of TH-expressing neurons in the SNpc compared to saline-injected mice” value ([1]; MPTP administration) was 44.3%, the “loss of TH-expressing neurons in the striatum compared to saline-injected mice” value [4] was 38.2% and the “reduction in DOPAC content in each striatum” value ([2]; MPTP intoxication) was 70-80%. For the same compound, the “reduction in HIA content in each striatum” value ([2]; MPTP intoxication) was 20-50%, the “reduction in HVA content in each striatum” value ([2]; MPTP intoxication) was 60-70% and the “reduction in noradrenalin content in each striatum” value ([2]; MPTP intoxication) was 35-50%. For the same compound, the “reduction in serotonin content in each striatum” value ([2]; MPTP intoxication) was 40-40% and the “reduction in dopamine content in each striatum” value ([2]; MPTP intoxication, 4 x 20 mg/kg i.p.) was 85-90%.
